Laboratory results taken from patent US20090042917A1, “Aminopyrimidine Derivative and Plant Disease Control Agent for Agricultural or Horticultural Use” (KUMIAI CHEMICAL INDUSTRY CO., LTD., priority 2006, published 2009).

Assays:
[1] = system: Pyricularia oryzae; assay: whole plant or invertebrate; format: in vivo; details: for pest or weed control at 500 ppm: Pyricularia oryzae, 120 h, read-out: control level
[2] = system: Rhizoctonia solani; assay: Test on protective effect against Rhizoctonia solani (rice pot test); format: in vivo; details: 500 ppm active ingredient sprayed on rice (Kinmaze) at 2.5 to 3-leaf stage before inoculation, 5 days after inoculation; for pest or weed control at 500 ppm: Rhizoctonia solani, 120 h, read-out: control level
Experimental: 15 rice seeds (variety: Kinmaze) were sown in each clay pot having a diameter of 7.5 cm and allowed to grow for 3 weeks in a greenhouse. […] After air drying, the plants were inoculated by uniformly covering the surface of the soil with Rhizoctonia solani cultured in a rice-husk bran medium and incubated in a moist chamber at 30° C. […] The standard for disease development index is as follows: [table] Hereinbelow, an expression to calculate a control level (%) is shown. [formula]

[3] = system: Pseudoperonospora cubensis; assay: Test on protective effect against Pseudoperonospora cubensis (cucumber seedlings); format: in vivo; details: 500 ppm active ingredient sprayed on cucumber (Sagami-Hanziro) seedlings before inoculation, 6 days after; for pest or weed control at 500 ppm: Pseudoperonospora cubensis, 144 h, read-out: control level
Experimental: 4 cucumber seeds (variety: Sagami-Hanziro) were sown in each plastic cup having a diameter of 5.5 cm and allowed to grow for 7 days in a greenhouse. […] After air drying, the plants were inoculated by spraying with a conidia suspension of Pseudoperonospora cubensis. The inoculated plants were immediately put in a moist chamber at 20° C. (relative humidity of 100%) for 24 hours. Thereafter, the plants were transferred to a greenhouse. 6 days after, disease development indexes of cotyledons for total pots were examined according to the standard described below, a disease severity was determined using an expression shown below and a control level (%) was calculated using another expression shown below. The standard for disease development index is as follows: [table] Hereinbelow, an expression to calculate a disease severity (%) is shown. [formula] Hereinbelow, an expression to calculate a control level (%) is shown. [formula]

[4] = system: Botrytis cinerea; assay: Test on protective effect against Botrytis cinerea (cucumber seedlings); format: in vivo; details: 500 ppm active ingredient sprayed on cucumber (Sagami-Hanziro) seedlings before inoculation; 2 days after
Experimental: 4 cucumber seeds (variety: Sagami-Hanziro) were sown in each plastic cup having a diameter of 5.5 cm and allowed to grow for 7 days in a greenhouse. […] After air drying, a sterilized paper disc was immersed in a conidia suspension of Botrytis cinerea and laid on an upper side of a cucumber cotyledon for innoculation and thereafter cared in a moist chamber at 20° C.

[5] = system: Septoria nodorum; assay: Test on protective effect against Septoria nodorum (wheat); format: in vivo; details: 500 ppm active ingredient sprayed on wheat (Norin No. 61) at two-leaf stage before inoculation, 9 days after; for pest or weed control at 500 ppm: Parastagonospora nodorum, 216 h, read-out: control level
Experimental: 10 wheat seeds (variety: Norin No. 61) were sown in each plastic cup having a diameter of 5.5 cm and allowed to grow for 9 days in a greenhouse. […] After air drying, the plants were inoculated by spraying with a pycnidiospore suspension of Septoria nodorum. The inoculated plants were immediately put in a moist chamber at 25° C. (relative humidity of 100%) for 48 hours. Thereafter, the plants were transferred to a greenhouse. 9 days after, disease development indexes of first leaves for total pots were examined according to the standard in Test Example 3, a disease severity was determined using the expression in Test Example 3 and a control level (%) was calculated using the expression in Test Example 3.

[6] = system: Erysiphe graminis; assay: Test on protective effect against Erysiphe graminis (wheat); format: in vivo; details: Blumeria graminis, 168 h; 500 ppm active ingredient sprayed on wheat (Norin No. 61) at 1.5 to 2-leaf stage before inoculation; 7 days after; read-out: control level
Experimental: 10 wheat seeds (variety: Norin No. 61) were sown in each plastic cup having a diameter of 5.5 cm and allowed to grow for 8 days in a greenhouse. […] After air drying, the plants were inoculated by equally sprinkling with conidia of Erysiphe graminis by using a midget duster or the like for innoculation and then incubated in a greenhouse until a development of disease. 7 days after, disease development indexes of first leaves for total pots were examined according to the standard in Test Example 3, a disease severity was determined using the expression in Test Example 3 and a control level (%) was calculated using the expression in Test Example 3.

| Structure (SMILES) | pest or weed control at 500 ppm [2] [%] | pest or weed control at 500 ppm [5] [%] | pest or weed control at 500 ppm [1] [%] | pest or weed control at 500 ppm [6] [%] | melting point [°C] | pest or weed control at 500 ppm [3] [%] | further results |
| --- | --- | --- | --- | --- | --- | --- | --- |
| Clc1nc(-n2cccn2)nc(N2CCCC2)c1Cc1ccccc1 [Comparative Compound 1, reference compound] | – | – | – | – | – | – | control level ([1]; 500 ppm active ingredient sprayed on rice (Aichi Asahi) at four-leaf stage before inoculation, lesions counted 5 days after inoculation): did not exhibit a control effect; control level [2]: did not exhibit a control effect; control level [3]: did not exhibit a control effect; control level [4]: did not exhibit a control effect; control level [5]: did not exhibit a control effect |
| Cc1cc(C)n(-c2nc(C)c(C)c(NN)n2)n1 [Comparative Compound 2, reference compound] | 50 | 75 | – | – | – | – | control level [4]: 25% |
| CCC(C)c1c(NC(C)C)nc(-n2cccn2)nc1C(F)(F)F (centres unmarked) [Compound No. 0240, 5-sec-butyl-N-(1-methylethyl)-2-(1H-pyrazol-1-yl)-6-trifluoromethylpyrimidine-4-amine] | – | – | 100 | 100 | 85 to 87 | – | – |
| CCC(C)c1c(F)nc(-n2cccn2)nc1NCC(F)(F)F (centres unmarked) [Compound No. 0349, 5-sec-butyl-6-fluoro-2-(1H-pyrazol-1-yl)-N-(2,2,2-trifluoroethyl)pyrimidine-4-amine] | 100 | 100 | 100 | 100 | 132 to 134 | 100 | – |
| CCC(C)c1c(Cl)nc(-n2cccn2)nc1NCC(F)(F)F (centres unmarked) [Compound No. 0350, 5-sec-butyl-6-chloro-2-(1H-pyrazol-1-yl)-N-(2,2,2-trifluoroethyl)pyrimidine-4-amine] | 100 | 100 | 100 | 100 | 137 to 139 | 100 | – |
| CCC(C)c1c(Br)nc(-n2cccn2)nc1NCC(F)(F)F (centres unmarked) [Compound No. 0351, 6-bromo-5-sec-butyl-2-(1H-pyrazol-1-yl)-N-(2,2,2-trifluoroethyl)pyrimidine-4-amine] | 100 | 100 | 100 | 100 | 136 to 139 | 100 | – |
| CCC(C)c1c(O)nc(-n2cccn2)nc1NCC(F)(F)F (centres unmarked) [Compound No. 0353, 5-sec-butyl-2-(1H-pyrazol-1-yl)-6-(2,2,2-trifluoroethylamino)pyrimidin-4-ol] | – | – | – | – | 141 to 143 | – | – |
| CCC(C)c1c(NCC(F)(F)F)nc(-n2cccn2)nc1OC(F)F (centres unmarked) [Compound No. 0358, 5-sec-butyl-6-difluoromethoxy-2-(1H-pyrazol-1-yl)-N-(2,2,2-trifluoroethyl)pyrimidine-4-amine] | – | – | 100 | 100 | 94 to 95 | 100 | – |
| CCC(C)c1c(NCC(F)(F)F)nc(-n2cccn2)nc1SC (centres unmarked) [Compound No. 0361, 5-sec-butyl-6-methylthio-2-(1H-pyrazol-1-yl)-N-(2,2,2-trifluoroethyl)pyrimidine-4-amine] | 100 | – | 100 | 100 | – | 100 | – |
| CCC(C)c1c(NCC(F)(F)F)nc(-n2cccn2)nc1S(C)(=O)=O (centres unmarked) [Compound No. 0363, 5-sec-butyl-6-methylsulfonyl-2-(1H-pyrazol-1-yl)-N-(2,2,2-trifluoroethyl)pyrimidine-4-amine] | – | – | – | – | 52 to 55 | – | – |
| CCC(C)c1c(NCC(F)(F)F)nc(-n2cccn2)nc1N(CC)CC (centres unmarked) [Compound No. 0371, 5-sec-butyl-N^4, N^4-diethyl-2-(1H-pyrazol-1-yl)-N^6-(2,2,2-trifluoroethyl)pyrimidine-4,6-diamine] | – | – | – | 100 | – | 100 | – |
| CCc1nc(-n2cccn2)nc(NCC(F)(F)F)c1C(C)CC (centres unmarked) [Compound No. 0385, 5-sec-butyl-6-ethyl-2-(1H-pyrazol-1-yl)-N-(2,2,2-trifluoroethyl)pyrimidine-4-amine] | – | 100 | 100 | 100 | 89 to 90 | 100 | – |
| CCC(C)c1c(NCC(F)(F)F)nc(-n2cccn2)nc1C1CC1 (centres unmarked) [Compound No. 0387, 5-sec-butyl-6-cyclopropyl-2-(1H-pyrazol-1-yl)-N-(2,2,2-trifluoroethyl)pyrimidine-4-amine] | 100 | – | 100 | 100 | 84 to 85 | 100 | – |
| CCC(C)c1c(Cl)nc(-n2cc(Cl)cn2)nc1NCC(F)(F)F (centres unmarked) [Compound No. 0434, 5-sec-butyl-6-chloro-2-(4-chloro-1H-pyrazol-1-yl)-N-(2,2,2-trifluoroethyl)pyrimidine-4-amine] | 100 | – | 100 | 100 | 173 to 174 | – | – |
| CCOC(=O)c1cnn(-c2nc(Cl)c(C(C)CC)c(NCC(F)(F)F)n2)c1N (centres unmarked) [Compound No. 0601, ethyl 5-amino-1-[5-sec-butyl-4-chloro-6-(2,2,2-trifluoroethylamino)pyrimidin-2-yl]-1H-pyrazol-4-carboxylate] | – | – | – | – | 173 to 174 | – | – |
| CCC(C)c1cnc(-n2cccn2)nc1N1CCC(C)CC1 (centres unmarked) [Compound No. 1190, 5-sec-butyl-4-(4-methylpiperidin-1-yl)-2-(1H-pyrazol-1-yl)pyrimidine] | 100 | 100 | – | 100 | – | 100 | – |
| CCC(C)c1c(Cl)nc(-n2cccn2)nc1N1CCC(C)CC1 (centres unmarked) [Compound No. 1192, 5-sec-butyl-4-chloro-6-(4-methylpiperidin-1-yl)-2-(1H-pyrazol-1-yl)pyrimidine] | 100 | – | – | 100 | – | – | – |
| CCC(C)c1c(SC)nc(-n2cccn2)nc1N1CCC(C)CC1 (centres unmarked) [Compound No. 1204, 5-sec-butyl-6-(4-methylpiperidin-1-yl)-4-methylthio-2-(1H-pyrazol-1-yl)pyrimidine] | 100 | – | – | 100 | 69 to 71 | – | – |
| CCC(C)c1c(C#N)nc(-n2cccn2)nc1N1CCC(C)CC1 (centres unmarked) [Compound No. 1215, 5-sec-butyl-6-(4-methylpiperidin-1-yl)-2-(1H-pyrazol-1-yl)pyrimidine-4-carbonitrile] | 100 | – | – | 100 | – | 100 | – |
| CCC(C)c1c(C)nc(-n2cccn2)nc1N1CCC(C)CC1 (centres unmarked) [Compound No. 1225, 5-sec-butyl-4-methyl-6-(4-methylpiperidin-1-yl)-2-(1H-pyrazol-1-yl)pyrimidine] | – | 100 | – | 100 | – | 100 | – |
